Experimental data reported in US20260092086A1, “ANTIMICROBIAL LASSO PEPTIDES” (priority 2022, published 2026).
In brackets after ≈: the same amount, converted by molar mass. Where a SMILES comes first, the peptide text is derived from it.

Columns and labels:
[1] = test system: Enterobacter amnigenus ATCC 33072; type: cell-based
Method: (§1) Cloacaenodin was evaluated against several common laboratory strains as well as commercially acquired strains using a spot-on-lawn assay.^45 Strains were streaked out onto LB agar plates and incubated overnight at their recommended temperatures. A single colony was then used to inoculate an overnight culture in 5 mL of LB broth. After shaking at 250 rpm at the recommended temperature for each strain, 50 μL of the overnight culture was used to inoculate 5 mL of LB broth (volume ratio 1:100). These cultures were grown for a few hours until they reached the exponential phase (OD600˜0.4-0.6) before being added to 10 mL of soft M63 agar at a final cell density of 10^7 CFUs/mL, or 10^8 CFUs total in 10 mL. The M63 soft agar was composed of 2 g/L of (NH4)2SO4 (EMD MilliporeSigma), 13.6 g/L of KH2PO4 (Fisher), 40 mg/L of each of the 20 common amino acids, 0.2% glucose (Sigma), 0.00005% w/v thiamine hydrochloride (Sigma), and 0.65% w/v bacteriological-grade agar (Apex Bioresearch). […] Upon solidification, 10 μL of purified cloacaenodin in water at two-fold dilutions were then spotted onto the agar and allowed to dry. The plates were incubated overnight at the strains' recommended temperatures and analyzed the next morning for activity. The MIC is defined as the last dilution where a spot was visible.

[2] = test system: Enterobacter asburiae DSM 17506; type: cell-based
Method: as §1

[3] = test system: Enterobacter cloacae ATCC 13047; type: cell-based
Method: as §1

[4] = test system: Enterobacter mori DSM 26271; type: cell-based
Method: as §1

[5] = test system: Enterobacter hormaechei ATCC 700323; assay: Spot-on-lawn assay in M63 agar; type: cell-based; details: purified cloacaenodin in water
Method: as §1

[6] = test system: Enterobacter kobei BAA-260; assay: Spot-on-lawn assay in M63 agar; type: cell-based; details: purified cloacaenodin in water
Method: as §1

[7] = test system: clinical isolates of Enterobacter; assay: Spot-on-lawn assay, panel of clinical isolates (Table 7); type: cell-based
Method: The type strain of Enterobacter cloacae (ATCC 13047) tested as discussed above was isolated from human cerebrospinal fluid in 1890^66 before the era of antibiotics. The activity of cloacaenodin was also tested against more recent clinical isolates. A panel of two (2) clinical isolates of Enterobacter using the spot-on-lawn assay was tested (Table 7).
Cloacaenodin was evaluated against several common laboratory strains as well as commercially acquired strains using a spot-on-lawn assay.^45 Strains were streaked out onto LB agar plates and incubated overnight at their recommended temperatures. A single colony was then used to inoculate an overnight culture in 5 mL of LB broth. After shaking at 250 rpm at the recommended temperature for each strain, 50 μL of the overnight culture was used to inoculate 5 mL of LB broth (volume ratio 1:100). These cultures were grown for a few hours until they reached the exponential phase (OD600˜0.4-0.6) before being added to 10 mL of soft M63 agar at a final cell density of 10^7 CFUs/mL, or 10^8 CFUs total in 10 mL. […] The plates were incubated overnight at the strains' recommended temperatures and analyzed the next morning for activity. […]

trypsin = target: T1, trypsin (Sus scrofa, UniProt P00761); assay: Protease digestion, trypsin; type: in vitro ADME; details: 50 μM peptide, room temperature, 30 minutes to 1 hour, LC-MS
T1 construct: purchased Promega
Method: Sequencing grade trypsin (Promega) was added to 50 μM peptide samples at a 1:100 trypsin: peptide weight ratio in a buffer of 50 mM ammonium bicarbonate. The reaction was allowed to proceed at room temperature for 30 minutes to 1 hour and then quenched by 1% formic acid. An aliquot was then injected onto LC-MS for analysis.

[8] = spot-on-lawn, M63 agar, purified cloacaenodin in water

T1 sequence (P00761 9-231): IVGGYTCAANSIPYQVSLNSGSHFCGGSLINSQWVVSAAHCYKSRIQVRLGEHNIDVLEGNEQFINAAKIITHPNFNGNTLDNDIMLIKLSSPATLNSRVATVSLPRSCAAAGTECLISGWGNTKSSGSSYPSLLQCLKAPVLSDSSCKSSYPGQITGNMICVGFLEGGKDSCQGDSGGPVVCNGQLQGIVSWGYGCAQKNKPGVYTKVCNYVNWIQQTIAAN

Structure (SMILES): CC[C@H](C)[C@@H]1NC(=O)[C@H](CCCNC(=N)N)NC(=O)[C@H](CC(=O)O)NC(=O)[C@H](C(C)C)NC(=O)[C@H](CO)NC(=O)[C@H](Cc2c[nH]cn2)NC(=O)CNC(=O)CC[C@@H](C(=O)N[C@@H](Cc2ccc(O)cc2)C(=O)N[C@@H](Cc2ccccc2)C(=O)NCC(=O)N2CCC[C@H]2C(=O)N2CCC[C@H]2C(=O)NCC(=O)N[C@@H](CC(C)C)C(=O)N2CCC[C@H]2C(=O)NCC(=O)N2CCC[C@H]2C(=O)N[C@H](C(=O)N[C@@H](CC(C)C)C(=O)N[C@@H](Cc2ccccc2)C(=O)N[C@@H](Cc2ccc(O)cc2)C(=O)N[C@@H](CO)C(=O)O)C(C)C)NC(=O)[C@@H]2CCCN2C1=O [cloacaenodin] (HELM PEPTIDE1{G.H.S.V.D.R.I.P.E.Y.F.G.P.P.G.L.P.G.P.V.L.F.Y.S}$PEPTIDE1,PEPTIDE1,1:R1-9:R3$$$V2.0; C-terminus assumed)
- MIC in M63 media ([1]; ATCC 33072): 1.9 µM (≈ 4.91 µg/mL)
- strain susceptible to cloacaenodin ([1]; Enterobacter amnigenus ATCC 33072): * Enterobacter amnigenus
- antimicrobial activity (zones of inhibition) [1, 8]: zones of inhibition in the low micromolar range
- MIC in M63 media ([2]; DSM 17506): 1.9 µM (≈ 4.91 µg/mL)
- antimicrobial activity (zones of inhibition) [2, 8]: zones of inhibition in the low micromolar range
- MIC in M63 media ([3]; ATCC 13047): 7.5 µM (≈ 19.4 µg/mL)
- strain susceptible to cloacaenodin ([3]; Enterobacter cloacae subsp. cloacae ATCC 13047): * Enterobacter cloacae subsp. cloacae
- activity against Enterobacter cloacae ([3]; peptide at a concentration of 15 μM, listed as threaded cloacaenodin): has activity
- antimicrobial activity (zones of inhibition) [3, 8]: zones of inhibition in the low micromolar range
- MIC in M63 media ([4]; DSM 26271): 3.8 µM (≈ 9.82 µg/mL)
- strain susceptible to cloacaenodin ([4]; Enterobacter mori DSM 26271): * Enterobacter mori
- antimicrobial activity (zones of inhibition) [4, 8]: zones of inhibition in the low micromolar range
- antimicrobial activity (zones of inhibition) [5]: no observed activity
- antimicrobial activity (zones of inhibition) [6]: no observed activity
- minimal inhibitory concentration (MIC) ([7]; six of the clinical isolates, three classified as carbapenem resistant): low micromolar
- antimicrobial activity ([7]; the other clinical isolates of Table 7): either weak or no activity
- proteolysis by trypsin (trypsin; listed as Threaded cloacaenodin): resistant to trypsin digestion
- proteolysis by trypsin (trypsin; listed as threaded cloacaenodin): remained resistant to proteolysis
